Patent US6046218A, “Pyridine derivative and medicament containing the same as an effective ingredient” (SS Pharmaceutical Co., Ltd., priority 1996, dated 2000)
Where a name gives a salt, the structure may show the parent alone.

How the values were obtained:
IgE production = experiment: Test 4: inhibition of IgE production by spleen cells of orally treated sensitized mice; format: in vivo, Balb/c mouse; details: Mus musculus, po, 100 mg/kg orally once a day, Day 1 to Day 10, DNP-BSA 5 μg/ml, 24 hours, read-out: Inhibition rate of IgE production
Protocol: (§1) Test 4: Test on the inhibition of IgE production
(§2) To a Balb/c mouse, the DNP-labeled ascaris antigen (5 μg) and Alum (1 mg) were intraperitoneally administered on Day 1 and Day 6 to sensitize the mouse with the antibody. From Day 1 to Day 10, a medicament was orally administered at a dose of 100 mg/kg once a day. On Day 11, the mouse was subjected to splenectomy and the spleen so obtained was untangled into its cells. To 5×10^7 cells/ml of the spleen cells so obtained, DNP-BSA (5 μg/ml) was added, followed by incubation at 37° C. for 24 hours. After incubation, 100 μl of the supernatant were collected and subjected to the measurement an IgE measuring kit (Yamasa Co., Ltd.). In order to determine IgG1, IgG2a and IgM, the absorbance of the incubated supernatant was measured by the EIA method and provided for comparison. The inhibition rate of IgE production was calculated according to the below-described formula. Inhibition rates of the IgG1, IgG2a and IgM production were similarly calculated, respectively. [formula]

IL-4 production = experiment: Test 2: inhibition of IL-4 production in human T-cell strain ATL-16T(-) stimulated with PMA (Bio Source EIA); format: cell-based; details: ATL-16T(-) 5×10^5 cells/0.5 ml/well, 20 nM PMA, 48 hours, read-out: Inhibition rate of IL-4 production; for inhibition at 10 µM: 10^-5 M; for inhibition at 1 µM: 10^-6 M; for inhibition at 0.1 µM: 10^-7 M; for inhibition at 0.01 µM: 10^-8 M
Protocol: Test 2: Test on the inhibition of IL-4 production
Into individual wells of a 48-well microplate, the human T-cell strain ATL-16T(-) was poured at a concentration of 5×10^5 cells/0.5 ml/well (n=3), followed by the addition of a stimulator (20 nM of PMA) and a medicament at the same time. The resulting mixture was incubated in 5% CO2 at 37° C. for 48 hours. After incubation, 50 μl of the supernatant were collected and subjected to measurement by a human IL-4 EIA kit (BIO SOURCE, INC.). The inhibition rate was calculated according to the following formula. [formula]

IL-5 production = experiment: Test 3: inhibition of IL-5 production in human PBMC stimulated with ConA; format: cell-based; details: 10^-6 M, 10 μg/ml ConA, 48 hours, read-out: Inhibition rate of IL-5 production
Method in brief: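 Human PBMC from a normal volunteer, 1×10^6 cells/ml in AIM-V, stimulated with 10 μg/ml ConA alongside compound and incubated 48 h at 37 °C, 5% CO2. Supernatant IL-5 quantified by EIA; inhibition rate calculated from a formula.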

IgG1 production = experiment: Test 4 (comparison): inhibition of IgG1 production; format: in vivo, Balb/c mouse; details: 100 mg/kg orally once a day; for inhibition at 100 mg/kg: Mus musculus, po, Day 1 to Day 10, spleen cells, DNP-BSA 5 μg/ml, 24 hours, read-out: Inhibition rate of IgG1 production; for effects on the production of IgG1: in words
Protocol: as §1, §2

IgM production = experiment: Test 4 (comparison): inhibition of IgM production; format: in vivo, Balb/c mouse; details: 100 mg/kg orally once a day; for inhibition at 100 mg/kg: Mus musculus, po, Day 1 to Day 10, spleen cells, DNP-BSA 5 μg/ml, 24 hours, read-out: Inhibition rate of IgM production; for effects on the production of IgM: in words
Protocol: as §1, §2

IgG2a production = experiment: Test 4 (comparison): inhibition of IgG2a production; format: in vivo, Balb/c mouse; details: 100 mg/kg orally once a day; for inhibition at 100 mg/kg: Mus musculus, po, Day 1 to Day 10, spleen cells, DNP-BSA 5 μg/ml, 24 hours, read-out: Inhibition rate of IgG2a production; for effects on the production of IgG2a: in words
Protocol: as §1, §2

In the case of `CCOC(=O)CCCCCOc1cc(/C=C/C(=O)c2ccc(OC)c(OC)c2)ncc1OC` [Ex. 90, Ethyl 6-[5-methoxy-2-(3-(3,4-dimethoxyphenyl)-3-oxo-1-propenyl)-4-pyridyloxy]hexanoate hydrochloride], the inhibition at 100 mg/kg (IgE production) is reported as 21.5%, the inhibition at 10 µM (IL-4 production) is reported as 25.3% and the inhibition at 1 µM (IL-4 production) is reported as 26.4%. The inhibition at 0.1 µM (IL-4 production) was 28.6%, the inhibition at 0.01 µM (IL-4 production) was 43.2% and the inhibition at 1 µM (IL-5 production) was 75.6%. The inhibition at 100 mg/kg (IgG1 production) was 2.7%, the inhibition at 100 mg/kg (IgM production) was -10.3% and the inhibition at 100 mg/kg (IgG2a production) was 7%.

For `CCOC(=O)CCCCCOc1cc(/C=C/C(=O)c2ccc(OC)cc2OC)ncc1OC` [Ex. 92, Ethyl 6-[5-methoxy-2-(3-(2,4-dimethoxyphenyl)-3-oxo-1-propenyl)-4-pyridyloxy]hexanoate hydrochloride], the inhibition at 100 mg/kg (IgE production) was 61.2%, the inhibition at 10 µM (IL-4 production) was 54.2% and the inhibition at 1 µM (IL-4 production) was 48.4%. The inhibition at 0.1 µM (IL-4 production) was 31%, the inhibition at 0.01 µM (IL-4 production) was 25.3% and the inhibition at 1 µM (IL-5 production) was 96.4%. The inhibition at 100 mg/kg (IgG1 production) was -4.3%, the “effects on the production of IgG1” value (IgG1 production) was “No effects were observed” and the inhibition at 100 mg/kg (IgM production) was -8.3%. The “effects on the production of IgM” value (IgM production) was “No effects were observed”, the inhibition at 100 mg/kg (IgG2a production) was -6% and the “effects on the production of IgG2a” value (IgG2a production) was “No effects were observed”.

With `CCOC(=O)CCCCCOc1cc(/C=C/C(=O)c2ccccc2OC)ncc1OC` [Ex. 94, Ethyl 6-[5-methoxy-2-(3-(2-methoxyphenyl)-3-oxo-1-propenyl)-4-pyridyloxy]hexanoate hydrochloride] the inhibition at 100 mg/kg (IgE production) was 63.4%, the inhibition at 10 µM (IL-4 production) was 74.4% and the inhibition at 1 µM (IL-4 production) was 70.4%. It also gave an inhibition at 0.1 µM (IL-4 production) of 66.5%, an inhibition at 0.01 µM (IL-4 production) of 62.3% and an inhibition at 1 µM (IL-5 production) of 95.2%. The inhibition at 100 mg/kg (IgG1 production) was 7%, the “effects on the production of IgG1” value (IgG1 production) was “No effects were observed” and the inhibition at 100 mg/kg (IgM production) was -1.6%. The “effects on the production of IgM” value (IgM production) was “No effects were observed”, the inhibition at 100 mg/kg (IgG2a production) was 2.8% and the “effects on the production of IgG2a” value (IgG2a production) was “No effects were observed”.

Work on `CCOC(=O)CCCCCCOc1cc(/C=C/C(=O)c2ccccc2OC)ncc1OC` [Ex. 96, Ethyl 7-[5-methoxy-2-(3-(2-methoxyphenyl)-3-oxo-1-propenyl)-4-pyridyloxy]heptanoate hydrochloride] yielded an inhibition at 100 mg/kg (IgE production) of 63.2%, an inhibition at 10 µM (IL-4 production) of 102% and an inhibition at 1 µM (IL-4 production) of 76.2%. For the same compound, the inhibition at 0.1 µM (IL-4 production) was 78.6%, the inhibition at 0.01 µM (IL-4 production) was 78.2% and the inhibition at 1 µM (IL-5 production) was 79.8%. The inhibition at 100 mg/kg (IgG1 production) was 5%, the “effects on the production of IgG1” value (IgG1 production) was “No effects were observed” and the inhibition at 100 mg/kg (IgM production) was 9.6%. The “effects on the production of IgM” value (IgM production) was “No effects were observed”, the inhibition at 100 mg/kg (IgG2a production) was 8.3% and the “effects on the production of IgG2a” value (IgG2a production) was “No effects were observed”.

With `CCOC(=O)CCCCCCCOc1cc(/C=C/C(=O)c2ccccc2OC)ncc1OC` [Ex. 98, Ethyl 8-[5-methoxy-2-(3-(2-methoxyphenyl)-3-oxo-1-propenyl)-4-pyridyloxy]octanoate hydrochloride] the inhibition at 100 mg/kg (IgE production) was 50.1%, the inhibition at 10 µM (IL-4 production) was 100% and the inhibition at 1 µM (IL-4 production) was 85.6%. For the same compound, the inhibition at 0.1 µM (IL-4 production) was 76.1%, the inhibition at 0.01 µM (IL-4 production) was 75.7% and the inhibition at 1 µM (IL-5 production) was 96.8%. For the same compound, the inhibition at 100 mg/kg (IgG1 production) was 5.4%, the “effects on the production of IgG1” value (IgG1 production) was “No effects were observed” and the inhibition at 100 mg/kg (IgM production) was -2.6%. The “effects on the production of IgM” value (IgM production) was “No effects were observed”, the inhibition at 100 mg/kg (IgG2a production) was -4.1% and the “effects on the production of IgG2a” value (IgG2a production) was “No effects were observed”.

Compound `COc1cnc(/C=C/C(=O)c2ccccc2OC)cc1OCCCCCC(=O)O` [Ex. 105, 6-[5-Methoxy-2-(3-(2-methoxyphenyl)-3-oxo-1-propenyl)-4-pyridyloxy]hexanoicacid] has an inhibition at 100 mg/kg (IgE production) of 47.7%, an inhibition at 10 µM (IL-4 production) of 101% and an inhibition at 1 µM (IL-4 production) of 70.9%. For the same compound, the inhibition at 0.1 µM (IL-4 production) was 69.6%, the inhibition at 0.01 µM (IL-4 production) was 68.7% and the inhibition at 1 µM (IL-5 production) was 71%. The inhibition at 100 mg/kg (IgG1 production) was -4.2%, the “effects on the production of IgG1” value (IgG1 production) was “No effects were observed” and the inhibition at 100 mg/kg (IgM production) was 0.5%. The “effects on the production of IgM” value (IgM production) was “No effects were observed”, the inhibition at 100 mg/kg (IgG2a production) was -1.8% and the “effects on the production of IgG2a” value (IgG2a production) was “No effects were observed”.

Work on `COc1cnc(/C=C/C(=O)C2CCCCC2)cc1OCCCC(=O)O` [Ex. 106, 4-[2-(3-Cyclohexyl-3-oxo-1-propenyl)-5-methoxy-4-pyridyloxy]butanoic acid] yielded an inhibition at 100 mg/kg (IgE production) of 28.8%, an inhibition at 10 µM (IL-4 production) of 75.6% and an inhibition at 1 µM (IL-4 production) of 31.7%. For the same compound, the inhibition at 0.1 µM (IL-4 production) was 9.4%, the inhibition at 0.01 µM (IL-4 production) was 8.6% and the inhibition at 1 µM (IL-5 production) was 78.7%. The inhibition at 100 mg/kg (IgG1 production) was -0.8%, the inhibition at 100 mg/kg (IgM production) was -7.3% and the inhibition at 100 mg/kg (IgG2a production) was 2.1%.
